From patent publication US11155550B2, “Histone deacetylase inhibitors and methods of use thereof” (Reaction Biology Corp., priority 2018, dated 2021)

Biological target: T1, Complex of human HDAC3 and human NCOR2 (Homo sapiens, UniProt O15379)
T1 construct: full-length with a C-terminal His tag, MW=49.7 kDa; His tag (C); made in house; host or cells: baculovirus expression system
Assay: Biochemical HDAC enzymatic assay, HDAC3
Settings: Table 1; incubation time 10 min
Description: Incubation time for HDAC1/2 is 120 min, and 10 min for other HDACs.
Complex of human HDAC3 (GenBank Accession No. NM_003883), full-length with a C-terminal His tag, MW=49.7 kDa, and human NCOR2 (amino acid 395-489) (GenBank Accession No. NM_006312), N-terminal GST tag, MW=37.6 kDa, was co-expressed in a baculovirus expression system.
• I. Compound handling: Testing compounds were dissolved in 100% DMSO to a specific concentration. The serial dilution was conducted by epMotion 5070 in DMSO. • II. HDAC reaction buffer: 50 mM Tris-HCl, pH8.0, 137 mM NaCl, 2.7 mM KCl, and 1 mM MgCl2, Added fresh: 1 mg/ml BSA, 1% DMSO. • III. Substrate: Fluorogenic HDAC General Substrate for HDAC1, 2, 3, 6, 10, 11 ans Sirt1, 2 and 3: Arg-His-Lys-Lys(Ac); HDAC8 only substrate: Arg-His-Lys(Ac)-Lys(Ac); Class2A Substrate (HDAC4, 5, 7 and 9): Acetyl-Lys(trifluoroacetyl)-AMC; Sirt5 substrate: Ac-Lys(succinyl)-AMC. • IV. General Reaction Procedure: (Standard IC50 determination) • a. Delivered 2× enzyme in wells of reaction plate except No Enzyme (No En) control wells. Add buffer in No En wells. • b. Delivered compounds in 100% DMSO into the enzyme mixture by Acoustic technology (Echo550; nanoliter range). Spin down and pre-incubation. • c. Delivered 2× Substrate Mixture (Fluorogenic HDAC Substrate and co-factor (500 μM of Nicotinamide adenine dinucleotide (NAD^+) in all Sirt assay) in all reaction wells to initiate the reaction. Spin and shake. • d. Incubated for 1-2 hr. at 30° C. with seal. • e. Added Developer with Trichostatin A (or TMP269 or NAD^+) to stop the reaction and to generate fluorescent color. • f. Fluorescence was read (excitatory, 360; emission, 460) using the EnVision Multilabel Plate Reader (Perkin Elmer) • g. Endpoint reading was taken for analysis after the development reaches plateau. • V. Data Analysis: The percentages of enzyme activity (relative to DMSO controls) and IC50 values were calculated using the GraphPad Prism 4 program based on a sigmoidal dose-response equation.
The inhibitory activities of HDAC of compounds of the invention were determined using biochemical HDAC assays. Compounds were tested at the indicated doses in the biochemical assays of HDAC1, HDAC2, HDAC3, HDAC4, HDAC5, HDAC6, HDAC7, HDAC8, HDAC9, HDAC10, or HDAC11 enzyme. The curve fit and IC50 values were calculated using the GraphPad Prism 4 program based on a sigmoidal dose-response equation.
• I. Compound handling: Testing compounds were dissolved in 100% DMSO to a specific concentration. The serial dilution was conducted by epMotion 5070 in DMSO. • II. HDAC reaction buffer: 50 mM Tris-HCl, pH8.0, 137 mM NaCl, 2.7 mM KCl, and 1 mM MgCl2, Added fresh: 1 mg/ml BSA, 1% DMSO. • III. Substrate: Fluorogenic HDAC General Substrate for HDAC1, 2, 3, 6, 10, 11 ans Sirt1, 2 and 3: Arg-His-Lys-Lys(Ac); HDAC8 only substrate: Arg-His-Lys(Ac)-Lys(Ac); Class2A Substrate (HDAC4, 5, 7 and 9): Acetyl-Lys(trifluoroacetyl)-AMC; Sirt5 substrate: Ac-Lys(succinyl)-AMC. • IV. General Reaction Procedure: (Standard IC50 determination) • a. Delivered 2× enzyme in wells of reaction plate except No Enzyme (No En) control wells. Add buffer in No En wells. • b. Delivered compounds in 100% DMSO into the enzyme mixture by Acoustic technology (Echo550; nanoliter range). Spin down and pre-incubation. • c. […]

T1 sequence (O15379 whole entry): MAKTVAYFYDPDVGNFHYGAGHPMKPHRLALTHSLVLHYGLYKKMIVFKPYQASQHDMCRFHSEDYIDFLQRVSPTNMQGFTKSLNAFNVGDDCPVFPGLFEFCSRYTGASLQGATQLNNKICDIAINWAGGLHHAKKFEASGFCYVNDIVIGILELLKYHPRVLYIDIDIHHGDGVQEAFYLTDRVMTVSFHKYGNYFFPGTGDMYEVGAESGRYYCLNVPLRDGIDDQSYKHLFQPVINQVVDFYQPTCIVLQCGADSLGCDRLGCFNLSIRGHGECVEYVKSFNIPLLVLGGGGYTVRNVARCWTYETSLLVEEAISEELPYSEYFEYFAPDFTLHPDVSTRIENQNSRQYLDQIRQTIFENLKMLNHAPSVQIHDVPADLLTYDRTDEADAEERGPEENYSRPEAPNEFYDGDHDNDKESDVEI
T1 sequence (Q9Y618 395-489 partner limits assumed): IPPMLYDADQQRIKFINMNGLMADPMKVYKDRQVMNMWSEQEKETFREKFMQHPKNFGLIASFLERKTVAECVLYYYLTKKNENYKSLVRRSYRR

Row | Structure (SMILES) | IC50
1 | Nc1ccc(-c2cccs2)cc1NC(=O)c1ccc(CN2C(=O)CCC23CCNCC3)cc1 [Example 2, N-(2-amino-5-(thiophen-2-yl)phenyl)-4-((2-oxo-1,8-diazaspiro[4.5]decan-1-yl)methyl)benzamide] | > 20 µM
2 | Nc1cc(F)ccc1NC(=O)c1ccc(CN2C(=O)CCCC23CNC3)cc1 [Example 3, N-(2-amino-4-fluorophenyl)-4-((6-oxo-2,5-diazaspiro[3.5]nonan-5-yl)methyl)benzamide] | 1.9 µM
3 | Nc1ccc(-c2cccs2)cc1NC(=O)c1ccc(N2CC3(CCNCC3)CCC2=O)nc1 [Example 6, N-(2-amino-5-(thiophen-2-yl)phenyl)-6-(3-oxo-2,9-diazaspiro[5.5]undecan-2-yl)nicotinamide] | > 20 µM

More lines, now with the values ahead:

Row | IC50 | Structure (SMILES)
4 | 17.4 µM | CN1CCC2(CC1)CN(c1ccc(C(=O)Nc3cc(-c4cccs4)ccc3N)cn1)C(=O)O2 [Example 4, N-(2-amino-5-(thiophen-2-yl)phenyl)-6-(8-methyl-2-oxo-1-oxa-3,8-diazaspiro[4.5]decan-3-yl)nicotinamide]
5 | 13 µM | Nc1ccc(-c2cccs2)cc1NC(=O)c1ccc(CN2C(=O)CCCC23CNC3)cc1 [Example 1, N-(2-amino-5-(thiophen-2-yl)phenyl)-4-((6-oxo-2,5-diazaspiro[3.5]nonan-5-yl)methyl)benzamide]
6 | > 20 µM | Nc1ccc(-c2ccc(F)cc2)cc1NC(=O)c1ccc(N2CC3(CCOCC3)OC2=O)nc1 [Example 5, N-(4-amino-4′-fluoro-[1,1′-biphenyl]-3-yl)-6-(2-oxo-1,8-dioxa-3-azaspiro[4.5]decan-3-yl)nicotinamide]

Same assay, conditions: Table 2; incubation time 10 min

Row | Structure (SMILES) | IC50
7 | O=C(NO)c1ccc(CN2C(=O)C3(CCOC3)c3ccccc32)cc1 (centres unmarked) [Compound Example 9] | 21 µM
8 | O=C(NO)c1ccc(CN2C(=O)c3ccccc3C23CCNCC3)cc1 [Compound Example 10, N-hydroxy-4-((3-oxospiro[isoindoline-1,4′-piperidin]-2-yl)methyl)benzamide] | 7 µM
9 | O=C(NO)c1ccc(CN2C(=O)c3ccccc3C23CCN(C2CC2)CC3)cc1 [Compound Example 12, 4-((1′-cyclopropyl-3-oxospiro[isoindoline-1,4′-piperidin]-2-yl)methyl)-N-hydroxybenzamide] | 9.26 µM

The remaining lines, values ahead:

Row | IC50 | Structure (SMILES)
10 | > 10 µM | CN(C)C(=O)N1CCC2(CC1)c1ccccc1C(=O)N2Cc1ccc(C(=O)NO)cc1 [Compound Example 11, 2-(4-(hydroxycarbamoyl)benzyl)-N,N-dimethyl-3-oxospiro[isoindoline-1,4′-piperidine]-1′-carboxamide]
11 | > 10 µM | O=C(NO)c1ccc(CN2C(=O)c3ccccc3C23OCCO3)cc1 [Compound Example 8, N-hydroxy-4-((3-oxospiro[isoindoline-1,2′-[1,3]dioxolan]-2-yl)methyl)benzamide]
